Measurements: ChEMBL document CHEMBL5331050, “Spiro[benzoxazine-piperidin]-one derivatives as chitin synthase inhibitors and antifungal agents: Design, synthesis and biological evaluation” (Eur J Med Chem, 2022)
Values after ≈ are worked out from the molar mass of the structure shown.

How the values were obtained:
Type in all cases: functional
Candida albicans [1] = test: Antifungal activity against Candida albicans ATCC 76615 assessed as fungal growth inhibition incubated for 24 hrs by CLSI protocol based broth microdilution method
Aspergillus flavus [2] = test: Antifungal activity against Aspergillus flavus ATCC 16870 assessed as fungal growth inhibition incubated for 24 hrs by CLSI protocol based broth microdilution method
Aspergillus fumigatus [3] = test: Antifungal activity against Aspergillus fumigatus GIMCC 3.19 assessed as fungal growth inhibition incubated for 24 hrs by CLSI protocol based broth microdilution method
Cryptococcus neoformans [4] = test: Antifungal activity against Cryptococcus neoformans ATCC 208821 assessed as fungal growth inhibition incubated for 24 hrs by CLSI protocol based broth microdilution method
Candida albicans [5] = test: Antifungal activity against fluconazole-resistant Candida albicans ATCC 76615R assessed as fungal growth inhibition
Cryptococcus neoformans [6] = test: Antifungal activity against fluconazole-resistant Cryptococcus neoformans ATCC 208821R assessed as fungal growth inhibition
Candida albicans [7] = test: Synergistic antifungal activity against Candida albicans ATCC 76615 assessed as fungal growth inhibition incubated for 24 hrs in the presence of N-(4-bromophenyl)-4-(6-methoxy-2-oxo-1,2-dihydrospiro[benzo[d][1,3]oxazine-4,4'-piperidin]-1'-yl)-4-oxobut-2-enamide by broth dilution based checkerboard method
Aspergillus fumigatus [8] = test: Synergistic antifungal activity against Aspergillus fumigatus GIMCC 3.19 assessed as fungal growth inhibition incubated for 24 hrs in the presence of N-(4-bromophenyl)-4-(6-methoxy-2-oxo-1,2-dihydrospiro[benzo[d][1,3]oxazine-4,4'-piperidin]-1'-yl)-4-oxobut-2-enamide by broth dilution based checkerboard method
Cryptococcus neoformans [9] = test: Synergistic antifungal activity against Cryptococcus neoformans ATCC 208821 assessed as fungal growth inhibition incubated for 24 hrs in the presence of N-(4-bromophenyl)-4-(6-methoxy-2-oxo-1,2-dihydrospiro[benzo[d][1,3]oxazine-4,4'-piperidin]-1'-yl)-4-oxobut-2-enamide by broth dilution based checkerboard method
Aspergillus flavus [10] = test: Synergistic antifungal activity against Aspergillus flavus ATCC 16870 assessed as fungal growth inhibition incubated for 24 hrs in the presence of N-(4-bromophenyl)-4-(6-methoxy-2-oxo-1,2-dihydrospiro[benzo[d][1,3]oxazine-4,4'-piperidin]-1'-yl)-4-oxobut-2-enamide by broth dilution based checkerboard method
Candida albicans [11] = test: Synergistic antifungal activity against Candida albicans ATCC 76615 assessed as fungal growth inhibition incubated for 24 hrs in the presence of 4-(6-methoxy-2-oxo-1,2-dihydrospiro[benzo[d][1,3]oxazine-4,4'-piperidin]-1'-yl)-N-(4-methoxyphenyl)-4-oxobut-2-enamide by broth dilution based checkerboard method
Aspergillus fumigatus [12] = test: Synergistic antifungal activity against Aspergillus fumigatus GIMCC 3.19 assessed as fungal growth inhibition incubated for 24 hrs in the presence of 4-(6-methoxy-2-oxo-1,2-dihydrospiro[benzo[d][1,3]oxazine-4,4'-piperidin]-1'-yl)-N-(4-methoxyphenyl)-4-oxobut-2-enamide by broth dilution based checkerboard method
Cryptococcus neoformans [13] = test: Synergistic antifungal activity against Cryptococcus neoformans ATCC 208821 assessed as fungal growth inhibition incubated for 24 hrs in the presence of 4-(6-methoxy-2-oxo-1,2-dihydrospiro[benzo[d][1,3]oxazine-4,4'-piperidin]-1'-yl)-N-(4-methoxyphenyl)-4-oxobut-2-enamide by broth dilution based checkerboard method
Aspergillus flavus [14] = test: Synergistic antifungal activity against Aspergillus flavus ATCC 16870 assessed as fungal growth inhibition incubated for 24 hrs in the presence of 4-(6-methoxy-2-oxo-1,2-dihydrospiro[benzo[d][1,3]oxazine-4,4'-piperidin]-1'-yl)-N-(4-methoxyphenyl)-4-oxobut-2-enamide by broth dilution based checkerboard method
Candida albicans [15] = test: Synergistic antifungal activity against Candida albicans ATCC 76615 assessed as fungal growth inhibition incubated for 24 hrs in the presence of 4-(6-methoxy-2-oxo-1,2-dihydrospiro[benzo[d][1,3]oxazine-4,4'-piperidin]-1'-yl)-4-oxo-N-phenylbut-2-enamide by broth dilution based checkerboard method
Aspergillus fumigatus [16] = test: Synergistic antifungal activity against Aspergillus fumigatus GIMCC 3.19 assessed as fungal growth inhibition incubated for 24 hrs in the presence of 4-(6-methoxy-2-oxo-1,2-dihydrospiro[benzo[d][1,3]oxazine-4,4'-piperidin]-1'-yl)-4-oxo-N-phenylbut-2-enamide by broth dilution based checkerboard method
Cryptococcus neoformans [17] = test: Synergistic antifungal activity against Cryptococcus neoformans ATCC 208821 assessed as fungal growth inhibition incubated for 24 hrs in the presence of 4-(6-methoxy-2-oxo-1,2-dihydrospiro[benzo[d][1,3]oxazine-4,4'-piperidin]-1'-yl)-4-oxo-N-phenylbut-2-enamide by broth dilution based checkerboard method
Aspergillus flavus [18] = test: Synergistic antifungal activity against Aspergillus flavus ATCC 16870 assessed as fungal growth inhibition incubated for 24 hrs in the presence of 4-(6-methoxy-2-oxo-1,2-dihydrospiro[benzo[d][1,3]oxazine-4,4'-piperidin]-1'-yl)-4-oxo-N-phenylbut-2-enamide by broth dilution based checkerboard method
Candida albicans [19] = test: Synergistic antifungal activity against Candida albicans ATCC 76615 assessed as fungal growth inhibition incubated for 24 hrs in the presence of N-(2-chlorophenyl)-4-(6-methoxy-2-oxo-1,2-dihydrospiro[benzo[d][1,3]oxazine-4,4'-piperidin]-1'-yl)-4-oxobut-2-enamide by broth dilution based checkerboard method
Aspergillus fumigatus [20] = test: Synergistic antifungal activity against Aspergillus fumigatus GIMCC 3.19 assessed as fungal growth inhibition incubated for 24 hrs in the presence of N-(2-chlorophenyl)-4-(6-methoxy-2-oxo-1,2-dihydrospiro[benzo[d][1,3]oxazine-4,4'-piperidin]-1'-yl)-4-oxobut-2-enamide by broth dilution based checkerboard method
Cryptococcus neoformans [21] = test: Synergistic antifungal activity against Cryptococcus neoformans ATCC 208821 assessed as fungal growth inhibition incubated for 24 hrs in the presence of N-(2-chlorophenyl)-4-(6-methoxy-2-oxo-1,2-dihydrospiro[benzo[d][1,3]oxazine-4,4'-piperidin]-1'-yl)-4-oxobut-2-enamide by broth dilution based checkerboard method
Aspergillus flavus [22] = test: Synergistic antifungal activity against Aspergillus flavus ATCC 16870 assessed as fungal growth inhibition incubated for 24 hrs in the presence of N-(2-chlorophenyl)-4-(6-methoxy-2-oxo-1,2-dihydrospiro[benzo[d][1,3]oxazine-4,4'-piperidin]-1'-yl)-4-oxobut-2-enamide by broth dilution based checkerboard method
Candida albicans [23] = test: Synergistic antifungal activity against Candida albicans ATCC 76615 assessed as fungal growth inhibition incubated for 24 hrs in the presence of 4-(6-methoxy-2-oxo-1,2-dihydrospiro[benzo[d][1,3]oxazine-4,4'-piperidin]-1'-yl)-N-(2-methoxy-4-nitrophenyl)-4-oxobut-2-enamide by broth dilution based checkerboard method
Aspergillus fumigatus [24] = test: Synergistic antifungal activity against Aspergillus fumigatus GIMCC 3.19 assessed as fungal growth inhibition incubated for 24 hrs in the presence of 4-(6-methoxy-2-oxo-1,2-dihydrospiro[benzo[d][1,3]oxazine-4,4'-piperidin]-1'-yl)-N-(2-methoxy-4-nitrophenyl)-4-oxobut-2-enamide by broth dilution based checkerboard method
Cryptococcus neoformans [25] = test: Synergistic antifungal activity against Cryptococcus neoformans ATCC 208821 assessed as fungal growth inhibition incubated for 24 hrs in the presence of 4-(6-methoxy-2-oxo-1,2-dihydrospiro[benzo[d][1,3]oxazine-4,4'-piperidin]-1'-yl)-N-(2-methoxy-4-nitrophenyl)-4-oxobut-2-enamide by broth dilution based checkerboard method
Aspergillus flavus [26] = test: Synergistic antifungal activity against Aspergillus flavus ATCC 16870 assessed as fungal growth inhibition incubated for 24 hrs in the presence of 4-(6-methoxy-2-oxo-1,2-dihydrospiro[benzo[d][1,3]oxazine-4,4'-piperidin]-1'-yl)-N-(2-methoxy-4-nitrophenyl)-4-oxobut-2-enamide by broth dilution based checkerboard method
Candida albicans [27] = test: Synergistic antifungal activity against Candida albicans ATCC 76615 assessed as fungal growth inhibition incubated for 24 hrs in the presence of N-(3-chloro-4-fluorophenyl)-4-(6-methoxy-2-oxo-1,2-dihydrospiro[benzo[d][1,3]oxazine-4,4'-piperidin]-1'-yl)-4-oxobut-2-enamide by broth dilution based checkerboard method
Aspergillus fumigatus [28] = test: Synergistic antifungal activity against Aspergillus fumigatus GIMCC 3.19 assessed as fungal growth inhibition incubated for 24 hrs in the presence of N-(3-chloro-4-fluorophenyl)-4-(6-methoxy-2-oxo-1,2-dihydrospiro[benzo[d][1,3]oxazine-4,4'-piperidin]-1'-yl)-4-oxobut-2-enamide by broth dilution based checkerboard method
Cryptococcus neoformans [29] = test: Synergistic antifungal activity against Cryptococcus neoformans ATCC 208821 assessed as fungal growth inhibition incubated for 24 hrs in the presence of N-(3-chloro-4-fluorophenyl)-4-(6-methoxy-2-oxo-1,2-dihydrospiro[benzo[d][1,3]oxazine-4,4'-piperidin]-1'-yl)-4-oxobut-2-enamide by broth dilution based checkerboard method
Aspergillus flavus [30] = test: Synergistic antifungal activity against Aspergillus flavus ATCC 16870 assessed as fungal growth inhibition incubated for 24 hrs in the presence of N-(3-chloro-4-fluorophenyl)-4-(6-methoxy-2-oxo-1,2-dihydrospiro[benzo[d][1,3]oxazine-4,4'-piperidin]-1'-yl)-4-oxobut-2-enamide by broth dilution based checkerboard method

In the case of OC(Cn1cncn1)(Cn1cncn1)c1ccc(F)cc1F [FLUCONAZOLE], the MIC (Candida albicans [1]) is reported as 16 µg/mL (≈ 52.2 µM), the MIC (Aspergillus flavus [2]) is reported as 16 µg/mL (≈ 52.2 µM) and the MIC (Aspergillus fumigatus [3]) is reported as 16 µg/mL (≈ 52.2 µM). The MIC (Cryptococcus neoformans [4]) was 32 µg/mL (≈ 104 µM), the MIC (Candida albicans [5]) was 256 µg/mL (≈ 836 µM) and the MIC (Cryptococcus neoformans [6]) was 256 µg/mL (≈ 836 µM). The MIC (Candida albicans [7]) was 4 µg/mL, the MIC (Aspergillus fumigatus [8]) was 16 µg/mL and the MIC (Cryptococcus neoformans [9]) was 16 µg/mL. For the same compound, the MIC (Aspergillus flavus [10]) was 32 µg/mL, the MIC (Candida albicans [11]) was 16 µg/mL and the MIC (Aspergillus fumigatus [12]) was 16 µg/mL. It also gave an MIC (Cryptococcus neoformans [13]) of 16 µg/mL, an MIC (Aspergillus flavus [14]) of 16 µg/mL and an MIC (Candida albicans [15]) of 8 µg/mL. For the same compound, the MIC (Aspergillus fumigatus [16]) was 4 µg/mL, the MIC (Cryptococcus neoformans [17]) was 16 µg/mL and the MIC (Aspergillus flavus [18]) was 8 µg/mL. It also gave an MIC (Candida albicans [19]) of 4 µg/mL, an MIC (Aspergillus fumigatus [20]) of 16 µg/mL and an MIC (Cryptococcus neoformans [21]) of 4 µg/mL. For the same compound, the MIC (Aspergillus flavus [22]) was 16 µg/mL, the MIC (Candida albicans [23]) was 16 µg/mL and the MIC (Aspergillus fumigatus [24]) was 16 µg/mL. For the same compound, the MIC (Cryptococcus neoformans [25]) was 16 µg/mL, the MIC (Aspergillus flavus [26]) was 16 µg/mL and the MIC (Candida albicans [27]) was 16 µg/mL. It also gave an MIC (Aspergillus fumigatus [28]) of 4 µg/mL, an MIC (Cryptococcus neoformans [29]) of 4 µg/mL and an MIC (Aspergillus flavus [30]) of 16 µg/mL.
